This is an account of results in patent US20260116920A1, “HUMAN TRANSFERRIN RECEPTOR BINDING PEPTIDE” (PEPTIDREAM INC., priority 2021, published 2026).

pKd: −log10 of the molar value. Positions of bridges follow the written chain, without caps; N, C: chain ends. Non-standard residues stand in square brackets, D forms with d. Residues, ends and D or L forms follow the SMILES beside them. *: point of attachment. Phe(3-COOH) = N[C@@H](Cc1cccc(C(=O)O)c1)C(=O)O; NH(CH2CH2O)8Me = COCCOCCOCCOCCOCCOCCOCCOCCN*; NMePhe(3-Cl) = CN[C@@H](Cc1cccc(Cl)c1)C(=O)O; 3Pal(6-NH2) = Nc1ccc(C[C@H](N)C(=O)O)cn1; NMeY = CN[C@@H](Cc1ccc(O)cc1)C(=O)O; 3Pal = N[C@@H](Cc1cccnc1)C(=O)O; PEG4 = NCCOCCOCCOCCOCCC(=O)O; Carboxymethyl = O=C(O)C*

T1 sequence (P02786 89-760 limits assumed): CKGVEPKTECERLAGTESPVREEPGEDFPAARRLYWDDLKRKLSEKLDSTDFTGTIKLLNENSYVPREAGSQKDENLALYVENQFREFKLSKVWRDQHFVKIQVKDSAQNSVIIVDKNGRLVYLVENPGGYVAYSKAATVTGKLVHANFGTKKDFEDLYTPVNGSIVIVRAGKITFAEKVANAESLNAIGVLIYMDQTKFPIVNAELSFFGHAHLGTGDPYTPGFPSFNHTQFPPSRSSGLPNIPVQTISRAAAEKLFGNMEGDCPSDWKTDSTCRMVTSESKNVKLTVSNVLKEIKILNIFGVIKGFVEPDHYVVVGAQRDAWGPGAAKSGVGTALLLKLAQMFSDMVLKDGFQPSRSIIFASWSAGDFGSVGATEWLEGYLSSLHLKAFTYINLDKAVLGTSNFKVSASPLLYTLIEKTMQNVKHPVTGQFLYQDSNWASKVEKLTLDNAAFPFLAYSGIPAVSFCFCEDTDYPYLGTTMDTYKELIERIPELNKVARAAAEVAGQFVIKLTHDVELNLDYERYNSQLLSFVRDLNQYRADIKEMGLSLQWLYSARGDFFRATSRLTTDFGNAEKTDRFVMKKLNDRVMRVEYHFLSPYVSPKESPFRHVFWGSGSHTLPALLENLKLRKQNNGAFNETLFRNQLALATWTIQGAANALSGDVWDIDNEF

The first experiment concerns the target T1, human transferrin receptor (hTfR) (Homo sapiens, UniProt P02786).
T1 construct: made in house
Description: Evaluation of molecular interaction between transferrin receptor (hTfR) and peptide using surface plasmon resonance (SPR). It counts as binding. Conditions: KD class for binding to hTfR by SPR; peptide with the linker shown in the same line; 'low signal indicates no activity'; read-out: SPR. On the procedure:
Evaluation Test of Molecular Interaction Between Transferrin Receptor (hTfR) and Peptide Using Surface Plasmon Resonance (SPR)
The intermolecular interactions of various synthesized peptides with the transferrin receptor (hTfR) by surface plasmon resonance (SPR) of the peptides were tested by the methods described below. Specific test methods are shown below.
NTA sensor chip (Global Life Sciences Technologies Japan K.K.) was inserted into BiacoreT200 (Global Life Sciences Technologies Japan K.K.), then the priming operation was performed three times by using running buffer containing: 10 mM HEPES pH 8.0 (Nacalai Tesque, Inc.), 150 mM NaCl (Nacalai Tesque, Inc.), 0.05% Tween 20 (Nacalai Tesque, Inc.), 0.1% BSA (SIGMA-ALDRICH) and 1.0% DMSO (FUJIFILM Wako Pure Chemical Corporation), and equilibrated at a flow rate of 30 μL/min. 350 mM EDTA solution was reacted at a flow rate of 10 μL/min for 60 seconds, 0.5 mM […] solution (Kishida Chemical Co., Ltd.) was reacted at a flow rate of 10 μL/min for 60 seconds, and then the NTA sensor chip was washed with 3 mM EDTA solution (Nacalai Tesque, Inc.) at a flow rate of 10 μL/min for 60 seconds. After mixing 50 μL each of 60 mM EDC solution (Global Life Science Technologies Japan K.K.) and 650 mM NHS solution (Global Life Science Technologies Japan K.K.), the reaction was carried out at a flow rate of 10 μL/min for 420 seconds. 150 μL of 0.5 μM hTfR dimer solution was prepared by dilution with running buffer and reacted at a flow rate of 10 μL/min for 300 seconds to immobilize hTfR on the NTA sensor chip. For the human transferrin receptor (hTfR), recombinant hTfR described in Example 2 of WO2018/124121 was used. After immobilization, capping was performed by reacting with 1.0 M ethanolamine solution (Global Life Sciences Technologies Japan K.K.) at a flow rate of 10 μL/min for 420 seconds. Peptide lysate prepared in DMSO solution to 10 mM was diluted with running buffer to be a final concentration of 10 μM peptide lysate, then peptide solutions of 100 nM, 50 nM, 25 nM, 10 nM, and 5 nM were prepared. Using the above samples, the kinetics of the peptide against hTfR was obtained by SPR measurement.
The kinetic evaluation model was single-cycle kinetics, and curve fitting was performed using Biacore T200 Evaluation Software Version 3.0 (Global Life Science Technologies Japan K.K.). The binding of the peptide to hTfR was evaluated by performing curve fitting on the obtained sensorgram by least squares method and obtaining the KD value.
In the case of `CC[C@H](C)[C@@H]1NC(=O)[C@H](Cc2ccc(OC)cc2)NC(=O)[C@H](Cc2ccc(O)cc2)NC(=O)[C@H](CC(N)=O)NC(=O)[C@H](Cc2c[nH]c3ccccc23)NC(=O)[C@H](C(C)C)NC(=O)[C@H](Cc2cccc(Cl)c2)N(C)C(=O)[C@H](C(C)C)NC(=O)[C@H](C)NC(=O)CSC[C@@H](C(=O)NCCOCCOCCOCCOCCC(N)=O)NC(=O)[C@H](Cc2ccc(O)cc2)N(C)C(=O)[C@H](Cc2ccccc2)NC(=O)[C@H](CCC(N)=O)NC(=O)[C@H](CCC(N)=O)NC(=O)[C@H]([C@@H](C)CC)NC1=O` [894_0331] ({CH2CO}-AV[NMePhe(3-Cl)]VWNYY(Me)IIQQF[NMeY]C[PEG4]-NH2; thioether N-15), the pKd was 7.00 to 9.00.

As for `CC[C@H](C)[C@@H]1NC(=O)[C@H](Cc2ccc(OC)cc2)NC(=O)[C@H](Cc2ccc(O)cc2)NC(=O)[C@H](CC(N)=O)NC(=O)[C@H](Cc2cn(CC(=O)O)c3ccccc23)NC(=O)[C@H](C(C)C)NC(=O)[C@H](Cc2cccc(Cl)c2)N(C)C(=O)[C@H](C(C)C)NC(=O)[C@H](C)NC(=O)CSC[C@@H](C(=O)NCCOCCOCCOCCOCCC(N)=O)NC(=O)[C@H](Cc2ccc(O)cc2)N(C)C(=O)[C@H](Cc2cccc(C(=O)O)c2)NC(=O)[C@H](CCCNC(=N)N)NC(=O)[C@H](CCCNC(=N)N)NC(=O)[C@H]([C@@H](C)CC)NC1=O` [894_0336], the pKd is 7.00 to 9.00.

The experiment is the same for the next values; noted with them: peptide with linker, surface plasmon resonance; read-out: SPR (KD class for binding to hTfR).
With `CC[C@H](C)[C@@H]1NC(=O)[C@H](Cc2ccc(OCC(=O)O)cc2)NC(=O)[C@H](Cc2ccc(N)nc2)NC(=O)[C@H](CC(N)=O)NC(=O)[C@H](Cc2c[nH]c3ccccc23)NC(=O)[C@H](C(C)C)NC(=O)[C@H](Cc2cccc(Cl)c2)N(C)C(=O)[C@H](C(C)C)NC(=O)[C@H](C)NC(=O)CSC[C@@H](C(=O)NCCOCCOCCOCCOCCC(N)=O)NC(=O)[C@H](Cc2ccc(O)cc2)N(C)C(=O)[C@H](Cc2cccc(C(=O)O)c2)NC(=O)[C@H](CCCNC(=N)N)NC(=O)[C@H](CCC(=O)NCCOCCOCCOCCOCCOCCOCCOCCOC)NC(=O)[C@H]([C@@H](C)CC)NC1=O` [compound 238] ({CH2CO}-AV[NMePhe(3-Cl)]VWN[3Pal(6-NH2)]Y(Carboxymethyl)IIE(NH(CH2CH2O)8Me)R[Phe(3-COOH)][NMeY]C[PEG4]-NH2; thioether N-15), the pKd is 7.00 to 9.00.

Still in this experiment, the particulars now being: surface plasmon resonance, binding to hTfR; KD class symbol; read-out: SPR (KD value).
As for `CC[C@H](C)[C@@H]1NC(=O)[C@H](Cc2cccnc2)NC(=O)[C@H](Cc2ccc(O)cc2)NC(=O)[C@H](CC(N)=O)NC(=O)[C@H](Cc2c[nH]c3ccccc23)NC(=O)[C@H](C(C)C)NC(=O)[C@H](Cc2cccc(Cl)c2)N(C)C(=O)[C@H](C(C)C)NC(=O)[C@H](C)NC(=O)CSC[C@@H](C(=O)NCCOCCOCCOCCOCCC(N)=O)NC(=O)[C@H](Cc2ccc(O)cc2)N(C)C(=O)[C@H](Cc2cccc(C(=O)O)c2)NC(=O)[C@H](CCC(=O)NCCOCCOCCOCCOCCOCCOCCOCCOC)NC(=O)[C@H](CCCNC(=N)N)NC(=O)[C@H]([C@@H](C)CC)NC1=O` [compound 93] ({CH2CO}-AV[NMePhe(3-Cl)]VWNY[3Pal]IIRE(NH(CH2CH2O)8Me)[Phe(3-COOH)][NMeY]C[PEG4]-NH2; thioether N-15), the pKd is 7.00 to 9.00.

`CC[C@H](C)[C@@H]1NC(=O)[C@H](Cc2ccc(OCC(=O)O)cc2)NC(=O)[C@H](Cc2ccc(O)cc2)NC(=O)[C@H](CC(N)=O)NC(=O)[C@H](Cc2cn(CC(=O)O)c3ccccc23)NC(=O)[C@H](C(C)C)NC(=O)[C@H](Cc2cccc(Cl)c2)N(C)C(=O)[C@H](C(C)C)NC(=O)[C@H](C)NC(=O)CSC[C@@H](C(=O)NCCOCCOCCOCCOCCC(N)=O)NC(=O)[C@H](Cc2ccc(O)cc2)N(C)C(=O)[C@H](Cc2ccccc2)NC(=O)[C@H](CCCNC(=N)N)NC(=O)[C@H](CCC(=O)NCCOCCOCCOCCOCCOCCOCCOCCOC)NC(=O)[C@H]([C@@H](C)CC)NC1=O` [compound 101]: the pKd is 7.00 to 9.00. As to `CC[C@H](C)[C@@H]1NC(=O)[C@H](Cc2ccc(OC)cc2)NC(=O)[C@H](Cc2ccc(O)cc2)NC(=O)[C@H](CC(N)=O)NC(=O)[C@H](Cc2c[nH]c3ccc(Cl)cc23)NC(=O)[C@H](C(C)C)NC(=O)[C@H](Cc2ccccc2)N(C)C(=O)[C@H](C(C)C)NC(=O)[C@H](C)NC(=O)CSC[C@@H](C(=O)NCCOCCOCCOCCOCCC(N)=O)NC(=O)[C@H](Cc2ccc(O)cc2)N(C)C(=O)[C@H](Cc2ccc(O)cc2)NC(=O)[C@H](CCCNC(=N)N)NC(=O)[C@H](CCCNC(=N)N)NC(=O)[C@H]([C@@H](C)CC)NC1=O` [compound 37], the pKd is more than 9.00. `CC[C@H](C)[C@@H]1NC(=O)[C@H](Cc2ccc(O)cc2)NC(=O)[C@H](Cc2ccc(O)cc2)NC(=O)[C@H](CC(N)=O)NC(=O)[C@H](Cc2c[nH]c3ccc(Cl)cc23)NC(=O)[C@H](C(C)C)NC(=O)[C@H](Cc2ccc(F)cc2)N(C)C(=O)[C@H](C(C)C)NC(=O)[C@H](C)NC(=O)CSC[C@@H](C(=O)NCCOCCOCCOCCOCCC(N)=O)NC(=O)[C@H](Cc2ccc(O)cc2)N(C)C(=O)[C@H](Cc2ccccc2)NC(=O)[C@@H](CCCNC(=N)N)NC(=O)[C@H](CCCNC(=N)N)N(C)C(=O)[C@H]([C@@H](C)CC)NC1=O` [compound 25]: the pKd is 6.00 to 7.00.

On to `CC[C@H](C)[C@@H]1NC(=O)[C@H](Cc2ccc(O)cc2)NC(=O)[C@H](Cc2ccc(O)cc2)NC(=O)[C@H](CC(N)=O)NC(=O)[C@H](Cc2c[nH]c3ccccc23)N(C)C(=O)[C@H](C(C)C)NC(=O)[C@H](Cc2ccc(F)cc2)N(C)C(=O)[C@H](C(C)C)NC(=O)[C@H](C)NC(=O)CSC[C@@H](C(N)=O)NC(=O)[C@H](Cc2ccc(O)cc2)N(C)C(=O)[C@H](Cc2ccccc2)NC(=O)[C@@H](CCCNC(=N)N)NC(=O)[C@H](CCCCNC(=O)CCOCCOCCOCCOC)NC(=O)[C@H]([C@@H](C)CC)NC1=O` [compound 5], for which the pKd is 7.00 to 9.00. On to `CC[C@H](C)[C@@H]1NC(=O)[C@H](Cc2ccc(OC)cc2)NC(=O)[C@H](Cc2ccc(O)cc2)NC(=O)[C@H](CC(N)=O)NC(=O)[C@H](Cc2c[nH]c3ccccc23)N(C)C(=O)[C@H](C(C)C)NC(=O)[C@H](Cc2ccc(F)cc2)N(C)C(=O)[C@H](C(C)C)NC(=O)[C@H](C)NC(=O)CSC[C@@H](C(=O)NCCOCCOCCOCCOCCC(N)=O)NC(=O)[C@H](Cc2ccc(O)cc2)N(C)C(=O)[C@H](Cc2ccccc2)NC(=O)[C@@H](CCCNC(=N)N)NC(=O)[C@H](CCCNC(=N)N)N(C)C(=O)[C@H]([C@@H](C)CC)NC1=O` [compound 30], for which the pKd is 7.00 to 9.00.

Turning to `CC[C@H](C)[C@@H]1NC(=O)[C@H](Cc2ccc(OCC(=O)O)cc2)NC(=O)[C@H](Cc2ccc(N)nc2)NC(=O)[C@H](CC(N)=O)NC(=O)[C@H](Cc2cn(CC(=O)O)c3ccccc23)NC(=O)[C@H](C(C)C)NC(=O)[C@H](Cc2cccc(Cl)c2)N(C)C(=O)[C@H](C(C)C)NC(=O)[C@H](C)NC(=O)CSC[C@@H](C(=O)NCCOCCOCCOCCOCCC(N)=O)NC(=O)[C@H](Cc2ccc(O)cc2)N(C)C(=O)[C@H](Cc2ccncc2)NC(=O)[C@H](CCCNC(=N)N)NC(=O)[C@H](CCCNC(=N)N)NC(=O)[C@H]([C@@H](C)CC)NC1=O` [compound 80], the pKd was 7.00 to 9.00. Turning to `CC[C@H](C)[C@@H]1NC(=O)[C@H](Cc2ccc(OCC(=O)O)cc2)NC(=O)[C@H](Cc2ccc(O)cc2)NC(=O)[C@H](CC(N)=O)NC(=O)[C@H](Cc2c[nH]c3ccccc23)NC(=O)[C@H](C(C)C)NC(=O)[C@H](Cc2cccc(Cl)c2)N(C)C(=O)[C@H](C(C)C)NC(=O)[C@H](C)NC(=O)CSC[C@@H](C(=O)NCCOCCOCCOCCOCCC(N)=O)NC(=O)[C@H](Cc2ccc(O)cc2)N(C)C(=O)[C@H](Cc2ccccc2)NC(=O)[C@H](CCCCN(C)C)NC(=O)[C@H](CCC(=O)NCCOCCOCCOCCOC)NC(=O)[C@H]([C@@H](C)CC)NC1=O` [compound 122], the pKd is 7.00 to 9.00.
